28 compounds from US7786152B2, “Compound” (priority 2002, dated 2010) can be followed below.

The test addresses T1, 11 β-HSD type 2 (Rattus norvegicus, UniProt P50233).
T1 construct: Both the kidneys and livers were homogenised on ice in PBS-sucrose buffer; tissue Harlan Olac (rats); host or cells: Wistar rat kidney homogenate supernatant
T1 sequence (P50233 1-400): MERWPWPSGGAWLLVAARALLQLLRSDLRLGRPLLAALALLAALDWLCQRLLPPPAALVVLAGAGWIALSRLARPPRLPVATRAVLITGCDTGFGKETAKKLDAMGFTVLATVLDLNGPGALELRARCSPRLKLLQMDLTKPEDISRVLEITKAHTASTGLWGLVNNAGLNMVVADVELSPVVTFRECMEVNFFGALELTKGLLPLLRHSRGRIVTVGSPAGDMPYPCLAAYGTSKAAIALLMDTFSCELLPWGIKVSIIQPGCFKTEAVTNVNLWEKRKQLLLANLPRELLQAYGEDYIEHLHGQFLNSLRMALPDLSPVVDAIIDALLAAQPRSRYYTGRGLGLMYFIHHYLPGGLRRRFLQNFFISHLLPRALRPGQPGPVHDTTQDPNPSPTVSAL
The test is described as follows: 11 β-HSD type 2 inhibition, rat kidney homogenate, conversion F to E (radiometric TLC). It is filed as biochemical. The following applies: read-out: % inhibition of 11β HSD2 @ 10 μM, typical sd ± 5%, means n=2. The method, then: Enzymes—Rat livers and rat kidneys were obtained from normal Wistar rats (Harlan Olac, Bicester, Oxon, UK). Both the kidneys and livers were homogenised on ice in PBS-sucrose buffer (1 g/10 ml) using an Ultra-Turrax. After the livers and kidneys were homogenised the homogenate was centrifuged for five minutes at 4000 rpm. The supernatant obtained was removed and stored in glass vials at −20° C. The amount of protein per μl of rat liver and kidney cytosol was determined using the Bradford method.
The same procedure was used for the 11 β-HSD type 2 assay, the conversion F to E, to determine the amount of rat kidney to be used and the incubation time. Except this time the substrate solution contained ^3H—F and unlabelled F and the recovery contained ^14C-E and unlabelled E and cortisone has a Rf value of 0.65 on the TLC-plate.
In these assays the influence of different inhibitors on the 11 β-HSD activity both in reductive (type 1) and oxidative (type 2) directions were assessed. In the reductive direction E is the substrate and F the product and visa versa in the case of oxidation. The method described here is for the oxidative direction.
The substrate solution contained about 50,000 cpm/ml ^3H—F in PBS-sucrose and 0.5 μM F. 1 ml of the substrate solution was added to each tube, the inhibitors were also added, at a 10 μM concentration, to each tube except to the “control” and “blank” tubes. 150 μL was added to all tubes except to the blanks, this was done to correct for the amount of ^3H—F spontaneously formed. The tubes were incubated for 60 minutes in a mechanically shaken water bath at 37° C. The amount of kidney liver homogenate and incubation time used resulted from the enzyme- and time-dependency assay. After incubation 50 μL of recovery was added to correct for the losses made in the next steps, containing 5000 cpm/50 μL of ^14C-E and 50 μg/50 μL of unlabelled E (to visualise the spot on the TLC-plate). The aqueous mixture was then extracted with 4 ml of ether (2×30 sec cycle, vortex mix). After freezing the aqueous phase, the ether (upper) layer was decanted into smaller tubes and evaporated at 45° C. until completely dry. The residue was then re-dissolved in 6 drops of ether and transferred to a TLC-plate. The TLC-plate was developed in chloroform:methanol (9:1 v/v) solvent system, the TLC-plate ran for about 90 minutes until the solvent front had moved about 18 cm. The position of the product E was visualised under UV-light and cut out from the TLC-plate and put into scintillation vials. Radioactivity was eluted over 5 minutes with 0.5 ml methanol. 0.5 ml of PBS-sucrose and 10 ml of Ecoscint were then added and vortex mixed before counting in the scintillation counter. Before counting the samples, two total activity vials were prepared. These contained 0.5 ml of the substrate solution, 50 μL of the recovery, 0.5 ml of methanol and 10 ml of Ecoscint. These two total activity vials were needed to determine the amount of ^14C-E and ^3H—F added in the beginning to make the calculations.
To look at the percentage of inhibition four different concentrations, 1, 5, 10 and 20 μM, were used. The method for both the rat liver, type 1 the reductive, and rat kidney, type 2 the oxidative, stay the same throughout the entire experiment.
In this experiment the amount of rat liver homogenate and rat kidney homogenate added to each tube and the incubation time was determined. […] After drawing the graphs the optimal amount of rat liver cytosol and rat kidney cytosol and both their incubation times were selected. One important rule when selecting both variables, to select an amount of rat liver and rat kidney and incubation time on a linear part of the graph. This is done to avoid fluctuations in enzyme activity. The amount of rat liver cytosol selected was 25 μL and 90 minutes of incubation time, the amount of rat kidney cytosol selected was 150 μL and 60 minutes of incubation time. […]

In the case of `Cc1nc2cc(NS(=O)(=O)c3ccc(Cl)cc3Cl)ccc2s1` [compound 412], the inhibition (commonly the change of the read-out against control, counted positive when it falls) at 10 µM is 3%.

As for `Cc1nc2cc(NS(=O)(=O)c3cccc(Cl)c3C)ccc2s1` [compound 413], the inhibition at 10 µM came out at 0.2%. The figure for `CCCc1ccc(S(=O)(=O)Nc2ccc3sc(C)nc3c2)cc1` [compound 421] is 0.9%; for `COc1ccc(S(=O)(=O)Nc2ccc3sc(C)nc3c2)cc1` [compound 424] it is 0.7%; for `Cc1nc2cc(NS(=O)(=O)c3c(C)cccc3Cl)ccc2s1` [compound 425] it is 0%. For `Cc1nc2cc(N(C)S(=O)(=O)c3cccc(Cl)c3C)ccc2s1` [compound 469] the value was 29%; for `CCN(c1ccc2sc(C)nc2c1)S(=O)(=O)c1cccc(Cl)c1C` [compound 470], 30%; for `Cc1nc2cc(NS(=O)(=O)c3ccc(Br)cc3)ccc2s1` [compound 519], 8%.

Regarding `Cc1nc2cc(NS(=O)(=O)c3ccc(-c4ccccc4)cc3)ccc2s1` [compound 521], the inhibition at 10 µM was 5%. For the compound `Cc1nc2cc(NS(=O)(=O)c3c(Cl)cc(Cl)cc3Cl)ccc2s1` [compound 522], the inhibition at 10 µM is 6%. In the case of `Cc1nc2cc(NS(=O)(=O)c3ccc(Br)cc3C)ccc2s1` [compound 523], the inhibition at 10 µM came out at 8%. For `Cc1nc2cc(NS(=O)(=O)c3cccc4cccnc34)ccc2s1` [compound 552] the value was 24%. As to `Cc1nc2cc(NS(=O)(=O)c3cccc4ccccc34)ccc2s1` [compound 553], the inhibition at 10 µM was found to be 18%. The figure for `Cc1nc2cc(NS(=O)(=O)c3cccc4c(N(C)C)cccc34)ccc2s1` [compound 554] is 43%; for `Cc1nc2cc(NS(=O)(=O)c3cc(Cl)ccc3Cl)ccc2s1` [compound 580] it is 1.4%.

Regarding `Cc1nc2cc(NS(=O)(=O)c3ccc4c(c3)CN(C(=O)C(F)(F)F)CC4)ccc2s1` [compound 581], the inhibition at 10 µM was 32%.

Consider `COc1ccc(Cl)cc1S(=O)(=O)Nc1ccc2sc(C)nc2c1` [compound 582], for which the inhibition at 10 µM is 0.7%. The figure for `Cc1nc2cc(NS(=O)(=O)c3ccccc3C#N)ccc2s1` [compound 583] is 0.4%; for `COc1cc(C)ccc1S(=O)(=O)Nc1ccc2sc(C)nc2c1` [compound 584] it is 10%; for `Cc1nc2cc(NS(=O)(=O)c3ccc(Oc4ccccc4)cc3)ccc2s1` [compound 585] it is 1.6%. Regarding `CC(=O)c1ccccc1S(=O)(=O)Nc1ccc2sc(C)nc2c1` [compound 701], the inhibition at 10 µM was 36%. With `Cc1nc2cc(NS(=O)(=O)c3c(C(C)C)cc(C(C)C)cc3C(C)C)ccc2s1` [compound 703], the inhibition at 10 µM was determined as 4%. As to `Cc1nc2cc(NS(=O)(=O)c3ccc(C(C)C)cc3)ccc2s1` [compound 704], the inhibition at 10 µM is 4%. In the case of `COC(=O)c1ccccc1S(=O)(=O)Nc1ccc2sc(C)nc2c1` [compound 705], the inhibition at 10 µM came to 6%.

Regarding `COc1c(C)c(C)c(S(=O)(=O)Nc2ccc3sc(C)nc3c2)c(C)c1C` [compound 708], the inhibition at 10 µM amounted to 11%. As for `Cc1nc2cc(NS(=O)(=O)c3ccc(C(C)(C)C)cc3)ccc2s1` [compound 709], the inhibition at 10 µM turned out to be 13%.

As to `Cc1nc2cc(NS(=O)(=O)c3c(C)c(C)c(C)c(C)c3C)ccc2s1` [compound 710], the inhibition at 10 µM was 10%. The figure for `CCSc1nc2ccc(NS(=O)(=O)c3cccc(Cl)c3C)cc2s1` [compound 751] is 5%.
